Assay results taken from PubChem BioAssay (NCI).
Several values for one entry are separate records, joined by “and”; a condition that tells them apart may be missing. Equal values may be shown once.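 Interpolation was linear, between the two tested concentrations surrounding the appropriate level; five concentrations were tested over 48 hours in 96-well plates. At the GI50, growth is halved. TGI denotes the concentration required for complete inhibition of growth.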

Experiments:
Test in all cases: NCI tumour cell line growth inhibition, 48 h
[1] = test system: DU-145 prostate
[2] = test system: LOX IMVI melanoma
[3] = test system: MDA-MB-435
[4] = test system: MOLT-4 leukemia
[5] = test system: SF-268 CNS
[6] = test system: SF-539 CNS
[7] = test system: SK-MEL-28 melanoma
[8] = test system: SNB-75 CNS
[9] = test system: T-47D breast
[10] = test system: UO-31 renal

O=C(NCCCl)NCCN1c2nc3ccccc3cc2Sc2cc3ccccc3nc21
GI50 [1]: 3.28 µM
TGI [1]: > 39.4 µM
GI50 [2]: 2.36 µM
TGI [2]: 14.6 µM
GI50 [3]: 1.57 µM
TGI [3]: 11.1 µM
GI50 [4]: 0.861 µM
GI50 [5]: 3.63 µM
TGI [5]: > 41 µM
GI50 [6]: 3.14 µM
TGI [6]: 17.7 µM
GI50 [7]: 2.8 µM
TGI [7]: 8.53 µM
GI50 [8]: 0.558 µM
TGI [8]: 5.47 µM
GI50 [9]: 2.04 µM
TGI [9]: 12 µM
GI50 [10]: 2.64 µM
TGI [10]: > 52.1 µM

COc1cc(-c2cc(-c3cccs3)c(C#N)c(N3CCOCC3)n2)cc(OC)c1OC
GI50 [1]: 13.7 µM
TGI [1]: > 100 µM
GI50 [2]: 12 µM
TGI [2]: > 100 µM
GI50 [3]: > 47.9 µM
TGI [3]: > 100 µM
GI50 [4]: 4.09 µM
TGI [4]: > 100 µM
GI50 [5]: > 67.6 µM
TGI [5]: > 100 µM
GI50 [6]: 5.06 µM
TGI [6]: > 100 µM
GI50 [7]: 3.83 µM
TGI [7]: 97.2 µM
GI50 [8]: 10 µM
TGI [8]: > 63 µM
GI50 [9]: 3.32 µM
TGI [9]: > 85.3 µM
GI50 [10]: 5.12 µM
TGI [10]: > 100 µM

CC(=O)NC(CS)C(=O)O (stereo not drawn)
GI50 [1]: > 100 µM
TGI [1]: > 100 µM
TGI [2]: > 100 µM
GI50 [3]: > 100 µM
TGI [3]: > 100 µM and 61900 µM
GI50 [4]: > 100 µM
TGI [4]: > 100 µM
GI50 [5]: > 100 µM
TGI [5]: > 100 µM and 63800 µM
GI50 [6]: > 100 µM
TGI [6]: > 100 µM
GI50 [7]: > 100 µM
TGI [7]: > 100 µM
GI50 [8]: > 100 µM
TGI [8]: > 100 µM and 89800 µM
GI50 [9]: > 100 µM
TGI [9]: > 100 µM
GI50 [10]: > 100 µM
TGI [10]: > 100 µM and 45400 µM
